Data: patent US8440670B2, “Pyridopyrazindione derivative and its use as an antiulcer drug” (Innovative Pharmacology Research OOO (IPHAR), priority 2010, dated 2013)
Like-named read-outs stand apart in the source and are kept apart here.

Columns and labels:
[1] = tested on: basal gastric acid secretion; assay: Influence on basal secretion in rats (pylorus ligature); format: in vivo
Protocol: 2.1. Studying the influence of the compound on basal secretion in rats.
The study was conducted using male rats weighting 180-200 g. The animals were deprived of food for 24 hours, water access was not limited. Using ether anesthesia their abdomens were opened and a ligature put on the pylorus. […] The studied compound was administered in 100 mg/kg dose as water suspension, with the addition of Tween-80, 60 minutes before the ligature of pylorus. Control animals were given distilled water with the addition of Tween-80. Omeprazole in 50 mg/kg dose and famotidine in 25 and 50 mg/kg doses were used as drugs of comparison.

[2] = tested on: stimulated gastric acid secretion; assay: Gastric secretion stimulated by histamine, pentagastrin and 1-aminopyrene; format: in vivo, rats; set-up: inhibition of 1-aminopyrene-induced secretion: concentration or dose not given beside the values
Protocol: 2.2. Studying gastric secretion stimulated by histamine, pentagastrin and 1-aminopyrene.
The study was conducted using male rats weighting 180-200 g. The animals were deprived of food for 24 hours, water access was not limited. Before putting a ligature on the pylorus, one group of animals was administered histamine (2.5 mg/kg) subcutaneously, second group was administered pentagastrin ([…]) subcutaneously, third group was administered 1-aminopyrene 1 mg/kg. The studied compound was administered in 100 mg/kg dose as water suspension, with the addition of Tween-80,
1 and 3 hours before the ligature of pylorus. Control animals were given distilled water with the addition of Tween-80. Omeprazole in 50 mg/kg dose and famotidine in 25 and 50 mg/kg doses were used as the drugs of comparison. 4 hours after the operation stomach contents were studied: secretion volume per 100 g of animal mass, gastric acid pH, free hydrochloric acid and general acidity of gastric acid.

[3] = format: in vivo
Text: Studying the Toxicity (LD50) of Studied Compounds Following Single Administration

intestinal peristalsis = assay: Intestinal peristalsis study (activated charcoal); format: in vivo; settings: mice, given 60 minutes before activated charcoal
Protocol: 3.1. Studying intestinal peristalsis.
The studied compounds were administered to male mice (body weight 22-24 g) by a tube into the stomach 60 minutes before the administration of activated charcoal (0.3 ml of 10% suspension into the stomach). After 2 hours the animals were sacrificed by CO2 and the length of small intestine filled with charcoal was measured in cm. Control group animals were administered 0.3 ml of water, cerucal in 25 mg/kg dose was chosen as the drug of comparison.

[4] = molecular target: T1, H,K-ATPase of rabbit gastric mucosa (Oryctolagus cuniculus, UniProt P27112); assay: Action on enzyme activity of H,K-ATPase of rabbit gastric mucosa (inorganic phosphate from ATP hydrolysis); format: biochemical; settings: for IC50: read-out: I50, inhibition of H,K-ATPase
T1 construct: a white layer was seen on the borderline of 4% and 12% Ficoll that was a microsome fraction, enriched with H,K-ATPase; from tissue; host or cells: rabbit gastric (stomach) mucosa microsomes
T1 sequence (P27112 whole entry): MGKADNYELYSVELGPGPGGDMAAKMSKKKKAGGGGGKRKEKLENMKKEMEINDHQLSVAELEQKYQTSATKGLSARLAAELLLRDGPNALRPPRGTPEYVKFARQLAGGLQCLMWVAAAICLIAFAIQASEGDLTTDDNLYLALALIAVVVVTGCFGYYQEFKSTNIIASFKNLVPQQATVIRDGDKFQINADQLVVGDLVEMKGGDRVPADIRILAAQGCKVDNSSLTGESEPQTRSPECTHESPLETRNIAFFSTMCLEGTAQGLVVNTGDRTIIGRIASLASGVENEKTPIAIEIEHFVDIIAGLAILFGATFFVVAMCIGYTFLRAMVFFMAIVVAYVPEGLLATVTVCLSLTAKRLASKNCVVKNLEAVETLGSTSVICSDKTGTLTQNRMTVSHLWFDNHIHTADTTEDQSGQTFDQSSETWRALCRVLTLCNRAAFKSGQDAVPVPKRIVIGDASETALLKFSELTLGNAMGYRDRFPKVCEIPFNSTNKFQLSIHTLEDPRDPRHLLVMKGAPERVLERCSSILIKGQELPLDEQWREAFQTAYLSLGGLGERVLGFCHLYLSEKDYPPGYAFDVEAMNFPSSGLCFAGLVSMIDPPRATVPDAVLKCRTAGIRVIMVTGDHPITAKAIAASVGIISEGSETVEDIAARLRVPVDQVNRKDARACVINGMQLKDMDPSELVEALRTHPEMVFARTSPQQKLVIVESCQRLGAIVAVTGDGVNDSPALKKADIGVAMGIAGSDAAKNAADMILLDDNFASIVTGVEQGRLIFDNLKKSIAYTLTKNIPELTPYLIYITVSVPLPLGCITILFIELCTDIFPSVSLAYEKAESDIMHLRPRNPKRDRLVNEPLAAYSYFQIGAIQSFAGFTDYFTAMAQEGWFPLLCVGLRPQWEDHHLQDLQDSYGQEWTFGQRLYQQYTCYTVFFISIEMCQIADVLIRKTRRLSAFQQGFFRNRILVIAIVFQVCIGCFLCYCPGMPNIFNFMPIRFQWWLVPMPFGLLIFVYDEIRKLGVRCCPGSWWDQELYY
T1 sequence (P18597 whole entry partner): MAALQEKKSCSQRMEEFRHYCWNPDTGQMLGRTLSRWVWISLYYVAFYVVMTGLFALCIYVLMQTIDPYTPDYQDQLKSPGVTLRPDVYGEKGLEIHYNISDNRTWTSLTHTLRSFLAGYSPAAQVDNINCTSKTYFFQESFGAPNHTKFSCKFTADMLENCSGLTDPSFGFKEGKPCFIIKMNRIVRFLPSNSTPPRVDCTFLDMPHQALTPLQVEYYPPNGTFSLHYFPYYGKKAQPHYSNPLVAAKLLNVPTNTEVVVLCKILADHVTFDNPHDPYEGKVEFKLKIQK
Protocol: Microsome preparation, enriched with H+, K+-ATPase, was produced from the rabbit stomach mucosa using a method proposed by Farley and Faller.
Gastric mucosa was produced from a decapitated rabbit. All operations were carried out in ice. The stomach was cut at the greatest curve line, washed and scrubbed. Obtained mucosa was frozen and kept at −80° C. temperature.
To obtain a microsome preparation enriched with H,K-ATPase, gastric mucosa was defrozen and homogenized in extraction medium (0.25 mol sucrose, 5 mmol PIPES, 20 mmol Tris (THAM), ph 7.4) by a Polytron-class homogenizer (max rotations 30/sec). Mass ratio of tissue to extraction medium—1:20.
The homogenate was then centrifuged for 10 min at 10000 g. The sediment was discarded and supernatant was them centrifuged for 1 hour at 100000 g. The produced sediment was re-suspended in extraction medium (using the minimal volume necessary for re-suspension). The suspension was layered above Ficoll 400, prepared in the extraction medium: 12% Ficoll solution, 4% Ficoll solution. It was further centrifuged for 180 min at 100000 g. After centrifuging, a white layer was seen on the borderline of 4% and 12% Ficoll that was a microsome fraction, enriched with H,K-ATPase. The fraction was collected, divided into aliquots and kept at −80° C.
The effect was measured by the growth of inorganic phosphate that is produced during ATP hydrolysis. The concentration was measured using Ratbun and Betlah method. The incubation medium contained: 30 mmol imidazole, ph 7.4, 3 mmol MgCl2, 130 mmol NaCl, 20 mmol KCl, 3 mmol ATP, 2 mmol ouabain, 0.1 mmol EGTA, 2.25 μmol valinomycin, 5 mmol NaN3, 5 μmol of CCCP (Carbonyl cyanide m-chlorophenyl hydrazone).
Incubation medium and defrozen and homogenized microsome fraction were added into incubation sample. The sample was incubated for 20 min at 37° C., then the reaction was stopped by a cold stop-solution (3 mol sodium acetate, 3.7% formaldehyde, pH 4.3).
To evaluate the content of phosphate, produced during enzymatic hydrolysis of ATP, 2% ammonium molybdate solution and tin chloride solution (3 mg/ml) was into the sample. After the appearance of blue color, after 15 minutes, the samples were studied by colorimetry using wavelength of 650 nm
The H,K-ATPase activity was determined as activity inhibited by 0.1 mmol SCH-28080. […] The concentration of the studied compound was varied in range of 10^−8 to 10^−4 mol.
Possible competition between compound I and potassium ions was studied. To achieve this, the relation of H,K-ATPase and KCl concentration was studied, and then the inhibitory action of compound I on this enzyme in saturated (20 μmol) and unsaturated (2 μmol) concentrations of KCl was studied.

H,K-ATPase = H,K-ATPase (Homo sapiens, UniProt P20648); settings: K+-competitive; read-out: Ki (inhibition constant); cited from earlier work
H,K-ATPase, sequence (P20648 whole entry): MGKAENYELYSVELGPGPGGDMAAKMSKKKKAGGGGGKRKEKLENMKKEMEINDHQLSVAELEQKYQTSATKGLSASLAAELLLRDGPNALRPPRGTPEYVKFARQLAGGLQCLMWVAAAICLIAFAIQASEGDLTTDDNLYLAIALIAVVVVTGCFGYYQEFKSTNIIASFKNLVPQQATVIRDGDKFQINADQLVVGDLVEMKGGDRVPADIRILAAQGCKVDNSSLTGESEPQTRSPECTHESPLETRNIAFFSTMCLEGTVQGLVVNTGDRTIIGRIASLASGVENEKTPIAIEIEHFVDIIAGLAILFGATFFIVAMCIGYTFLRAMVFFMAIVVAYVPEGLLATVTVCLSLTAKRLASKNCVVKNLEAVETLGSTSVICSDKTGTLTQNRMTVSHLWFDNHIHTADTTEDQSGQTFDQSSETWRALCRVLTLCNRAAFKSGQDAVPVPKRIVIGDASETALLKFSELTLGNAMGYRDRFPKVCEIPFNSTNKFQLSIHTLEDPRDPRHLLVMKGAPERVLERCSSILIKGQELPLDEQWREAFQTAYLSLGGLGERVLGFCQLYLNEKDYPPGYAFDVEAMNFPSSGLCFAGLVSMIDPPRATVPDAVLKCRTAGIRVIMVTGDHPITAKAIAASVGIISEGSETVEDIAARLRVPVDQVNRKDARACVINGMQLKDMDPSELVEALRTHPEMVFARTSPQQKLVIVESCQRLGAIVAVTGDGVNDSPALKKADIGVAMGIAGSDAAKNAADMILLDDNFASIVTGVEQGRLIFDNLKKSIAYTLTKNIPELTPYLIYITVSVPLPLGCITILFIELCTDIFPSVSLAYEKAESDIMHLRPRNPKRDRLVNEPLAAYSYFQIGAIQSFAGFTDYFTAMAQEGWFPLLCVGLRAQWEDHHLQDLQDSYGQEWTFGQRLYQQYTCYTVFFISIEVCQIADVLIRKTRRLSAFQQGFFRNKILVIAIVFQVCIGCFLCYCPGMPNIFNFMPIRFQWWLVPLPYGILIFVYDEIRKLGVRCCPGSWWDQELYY
H,K-ATPase, sequence (P51164 whole entry partner): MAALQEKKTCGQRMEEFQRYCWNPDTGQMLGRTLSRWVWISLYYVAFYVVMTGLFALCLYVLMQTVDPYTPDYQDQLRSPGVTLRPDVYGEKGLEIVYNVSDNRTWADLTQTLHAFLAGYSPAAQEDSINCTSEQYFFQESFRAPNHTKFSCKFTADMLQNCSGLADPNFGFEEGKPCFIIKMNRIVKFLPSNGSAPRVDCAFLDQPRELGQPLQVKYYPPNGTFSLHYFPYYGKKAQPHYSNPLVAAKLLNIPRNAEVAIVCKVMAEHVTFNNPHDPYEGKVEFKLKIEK

| Molecule | inhibition of histamine-induced secretion ([2]; after 3 hours) | inhibition of histamine-induced secretion ([2]; one hour after administration) | inhibition of 1-aminopyrene-induced secretion ([2]; time not stated) | inhibition of pentagastrin-induced secretion ([2]; time not stated) | slowing of intestinal peristalsis (intestinal peristalsis) | inhibition of basal secretion ([1]; after three hours) | inhibition of basal secretion ([1]; one hour after administration) | further results |
| --- | --- | --- | --- | --- | --- | --- | --- | --- |
| CCOc1ccc(CCN2CC(=O)N3CCCC(C4=CC(=O)C=CC4O)=C3C2=O)cc1 (centres unmarked) [Compound I, 9-(quinonil-2)-2-p-ethoxyphenylethyl-4,5,6,7,8,9,10,11-octahydropyrido[1,2-a]pyrazindione-1,4] | 57% | 40% | 50% | about 54% | does not influence peristalsis | – | – | inhibition of basal gastric acid secretion level ([1]; 100 mg/kg, time not stated): does not inhibit basal gastric acid secretion level; general toxicity ([3]; in vivo): low-toxic; IC50 ([4]; 2 μmol KCl (unsaturated)): 10 µM; IC50 ([4]; 20 μmol KCl (saturated)): 1 µM; competition with K+ ions ([4]; 2 and 20 μmol KCl): does not compete with K+ ions; reversibility of effect on H,K-ATPase ([4]; dilution of enzyme-inhibitor complex): reversible |
| NC(N)=Nc1nc(CSCCC(N)=NS(N)(=O)=O)cs1 [famotidine] | 95% | 90% | – | 40% | does not influence peristalsis | 80% | 56% | inhibition of 1-aminopyrene-induced secretion ([2]; after 1 hour): 36%; inhibition of 1-aminopyrene-induced secretion ([2]; after 3 hours): 40% |
| COc1ccc2[nH]c([S+]([O-])Cc3ncc(C)c(OC)c3C)nc2c1 (centres unmarked) [omeprazole] | 80% | 70% | about 90% | about 90% | 35% | 40% | 25% | general toxicity ([3]; single administration): low-toxic |
| SCH-28080 | – | – | – | – | – | – | – | inhibition of H,K-ATPase activity ([4]; 0.1 mmol inhibitor): about 30% |
| CNc1nc2c(C)cccc2c2c1CCN2c1ccccc1C [SK&F96356] | – | – | – | – | – | – | – | Ki (H,K-ATPase): 0.07 µM |
